Assay results reported in patent US9801919B2, “Oral compositions containing enhanced antibacterial combinations of antioxidants and extracts of magnolia” (WM. WRIGLEY JR. COMPANY, priority 2008, dated 2017).

What was measured:
S. mutans [1] = assay: MIC and FIC of MBE and common antioxidants against S. mutans (broth two-fold dilution); format: cell-based, Streptococcus mutans; conditions: sample alone, lowest concentration with no visible growth, aerobic 37° C., 1 to 2 days; for MIC: Streptococcus mutans
Experimental: (§1) To evaluate an enhanced effect of an active ingredient in combination of magnolia with antioxidant, the fractional inhibitory index (FIC) is computed according to equation (1): […]
The following tests were conducted on S. mutans.
BHA, gallic acid, octyl gallate and magnolia bark extract (MBE) sample were dissolved in ethanol to produce 1-10% working solution and was added to a nutrient broth and shaken well and was diluted two-fold in individual test tubes. A total of 0.2 milliliter (mL) of inoculated bacteria culture purchased from American Type Culture Collection (ATCC) was added to each test tube. The tubes were incubated aerobically at 37° C. for 1 to 2 days. […] FIC values were determined by equation 1.

S. sobrinus = assay: MIC and FIC of MBE and common antioxidants against S. sobrinus (broth two-fold dilution); format: cell-based, Streptococcus sobrinus; conditions: sample alone, lowest concentration with no visible growth, aerobic 37° C., 1-2 days; for MIC: Streptococcus sobrinus
Experimental: as §1
S. Sobrinus, another common pathogen associated with dental plaque is also associated with dental caries.
BHA, BHT, gallic acid, octyl gallate and magnolia bark extract (MBE) samples were dissolved in ethanol to produce 1-10% working solution and was added to a nutrient broth and shaken well and was diluted two-fold in individual test tubes A total of 0.2 mL of inoculated bacteria culture purchased from ATCC was added to each test tube. The tubes were incubated aerobically at 37° C. for 1-2 days.

S. mutans [2] = conditions: active principles of Magnolia Cortex extracts; cited from earlier work

Work on `O=C(O)c1cc(O)c(O)c(O)c1` [Gallic acid] yielded an MIC (S. mutans [1]) of over 2000 mg/L and an MIC (S. sobrinus) of over 2000 mg/L.
For `CCCc1ccc(O)c(-c2ccc(O)c(CCC)c2)c1` [tetrahydrohonokiol], the “bactericidal against S. mutans in in vitro MIC test” value (shortened to “bactericidal against S. mutans”) (S. mutans [2]) is listed as “bactericidal”.
For `COc1ccc(O)c(C(C)(C)C)c1` [BHA, butylated hydroxyanisole], the “MIC (ppm)” value (S. mutans [1]) was 250 ppm and the “MIC (ppm)” value (S. sobrinus) was 500 ppm.
`Cc1cc(C(C)(C)C)c(O)c(C(C)(C)C)c1` [BHT, butylated hydroxytoluene] gave an MIC (S. sobrinus) of over 2000 mg/L.
`CCCCCCCCOC(=O)c1cc(O)c(O)c(O)c1` [Octyl gallate] gave an MIC (S. mutans [1]) of 250 mg/L and an MIC (S. sobrinus) of 250 mg/L.
For `C=CCc1ccc(O)c(-c2ccc(O)c(CC=C)c2)c1` [honokiol], the “bactericidal against S. mutans” value (S. mutans [2]) is listed as “bactericidal”.
In the case of `C=CCc1ccc(O)c(-c2cc(CC=C)ccc2O)c1` [magnolol], the “bactericidal against S. mutans” value (S. mutans [2]) is given as “bactericidal”.
In the case of `CCCc1ccc(O)c(-c2cc(CCC)ccc2O)c1` [tetrahydromagnolol], the “bactericidal against S. mutans” value (S. mutans [2]) is listed as “bactericidal”.
